# Source: PubChem BioAssay (NCI)
#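 Dose response: 5 concentrations. Exposure: 48 h. Format: 96-well plates. Endpoint: linear interpolation; highest concentration if not reached. TGI marks complete inhibition of growth.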
# Tests used:
# Test in all cases: growth of human tumour cells (NCI), 48 h
# CCRF-CEM leukemia = system: CCRF-CEM leukemia
# HCC-2998 colon = system: HCC-2998 colon
# RXF 393 renal = system: RXF 393 renal
# HOP-18 NSCLC = system: HOP-18 NSCLC
# MOLT-4 leukemia = system: MOLT-4 leukemia
# U251 CNS = system: U251 CNS
# SF-539 CNS = system: SF-539 CNS
# OVCAR-3 ovarian = system: OVCAR-3 ovarian
# OVCAR-4 ovarian = system: OVCAR-4 ovarian
# 786-0 renal = system: 786-0 renal
# A549 NSCLC = system: A549 NSCLC
# XF 498 CNS = system: XF 498 CNS
# KM20L2 colon = system: KM20L2 colon
# DLD-1 colon = system: DLD-1 colon
# M14 melanoma = system: M14 melanoma
# LOX IMVI melanoma = system: LOX IMVI melanoma
# MALME-3M melanoma = system: MALME-3M melanoma
# SNB-19 CNS = system: SNB-19 CNS
# M19-MEL melanoma = system: M19-MEL melanoma
# SNB-78 CNS = system: SNB-78 CNS
# SK-MEL-5 melanoma = system: SK-MEL-5 melanoma
# HCT-116 colon = system: HCT-116 colon
# NCI-H23 lung = system: NCI-H23 lung
# CAKI-1 renal = system: CAKI-1 renal
# RPMI-8226 leukemia = system: RPMI-8226 leukemia
# TK-10 renal = system: TK-10 renal
# SF-295 CNS = system: SF-295 CNS
# ACHN renal = system: ACHN renal
# SN12C renal = system: SN12C renal
# UACC-257 melanoma = system: UACC-257 melanoma
# OVCAR-8 ovarian = system: OVCAR-8 ovarian
# RXF-631 renal = system: RXF-631 renal
# NCI-H460 lung = system: NCI-H460 lung
# HOP-92 NSCLC = system: HOP-92 NSCLC
# OVCAR-5 ovarian = system: OVCAR-5 ovarian
# NCI-H226 lung = system: NCI-H226 lung
# HCT-15 colon = system: HCT-15 colon
# K-562 leukemia = system: K-562 leukemia
# SF-268 CNS = system: SF-268 CNS
# IGROV1 ovarian = system: IGROV1 ovarian
# UACC-62 melanoma = system: UACC-62 melanoma
# COLO 205 colon = system: COLO 205 colon
# SNB-75 CNS = system: SNB-75 CNS
# HL-60(TB) leukemia = system: HL-60(TB) leukemia
# SK-MEL-2 melanoma = system: SK-MEL-2 melanoma
# SK-MEL-28 melanoma = system: SK-MEL-28 melanoma
# DMS 273 small cell lung = system: DMS 273 small cell lung
# KM12 colon = system: KM12 colon
# EKVX NSCLC = system: EKVX NSCLC
# UO-31 renal = system: UO-31 renal
# DMS 114 small cell lung = system: DMS 114 small cell lung
# HOP-62 NSCLC = system: HOP-62 NSCLC
# SW-620 colon = system: SW-620 colon
# HT29 colon = system: HT29 colon
# SK-OV-3 ovarian = system: SK-OV-3 ovarian
# SR leukemia = system: SR leukemia
# LXFL 529 NSCLC = system: LXFL 529 NSCLC
# NCI-H522 lung = system: NCI-H522 lung
# A498 renal = system: A498 renal
structure (smiles),measurement,setting,value
COC(=O)c1ccc(CS(=O)(=O)c2ccccc2)cc1,TGI,CCRF-CEM leukemia,> 100 µM
same,TGI,HCC-2998 colon,> 100 µM
same,TGI,RXF 393 renal,> 100 µM
same,TGI,HOP-18 NSCLC,> 100 µM
same,TGI,MOLT-4 leukemia,> 100 µM
same,TGI,U251 CNS,> 100 µM
same,TGI,SF-539 CNS,> 100 µM
same,TGI,OVCAR-3 ovarian,> 100 µM
same,TGI,OVCAR-4 ovarian,> 100 µM
same,TGI,786-0 renal,> 100 µM
same,TGI,A549 NSCLC,> 100 µM
same,TGI,XF 498 CNS,> 100 µM
same,TGI,KM20L2 colon,> 100 µM
same,TGI,DLD-1 colon,> 100 µM
same,TGI,M14 melanoma,> 100 µM
same,TGI,LOX IMVI melanoma,> 100 µM
same,TGI,MALME-3M melanoma,> 100 µM
same,TGI,SNB-19 CNS,> 100 µM
same,TGI,M19-MEL melanoma,> 100 µM
same,TGI,SNB-78 CNS,> 100 µM
same,TGI,SK-MEL-5 melanoma,> 100 µM
same,TGI,HCT-116 colon,> 100 µM
same,TGI,NCI-H23 lung,> 100 µM
same,TGI,CAKI-1 renal,> 100 µM
same,TGI,RPMI-8226 leukemia,> 100 µM
same,TGI,TK-10 renal,> 100 µM
same,TGI,SF-295 CNS,> 100 µM
same,TGI,ACHN renal,> 100 µM
same,TGI,SN12C renal,> 100 µM
same,TGI,UACC-257 melanoma,> 100 µM
same,TGI,OVCAR-8 ovarian,> 100 µM
same,TGI,RXF-631 renal,> 100 µM
same,TGI,NCI-H460 lung,> 100 µM
same,TGI,HOP-92 NSCLC,> 100 µM
same,TGI,OVCAR-5 ovarian,> 100 µM
same,TGI,NCI-H226 lung,> 100 µM
same,TGI,HCT-15 colon,> 100 µM
same,TGI,K-562 leukemia,> 100 µM
same,TGI,SF-268 CNS,> 100 µM
same,TGI,IGROV1 ovarian,> 100 µM
same,TGI,UACC-62 melanoma,> 100 µM
same,TGI,COLO 205 colon,> 100 µM
same,TGI,SNB-75 CNS,> 100 µM
same,TGI,HL-60(TB) leukemia,> 100 µM
same,TGI,SK-MEL-2 melanoma,> 100 µM
same,TGI,SK-MEL-28 melanoma,> 100 µM
same,TGI,DMS 273 small cell lung,> 100 µM
same,TGI,KM12 colon,> 100 µM
same,TGI,EKVX NSCLC,> 100 µM
same,TGI,UO-31 renal,> 100 µM
same,TGI,DMS 114 small cell lung,> 100 µM
same,TGI,HOP-62 NSCLC,> 100 µM
same,TGI,SW-620 colon,> 100 µM
same,TGI,HT29 colon,> 100 µM
same,TGI,SK-OV-3 ovarian,> 100 µM
same,TGI,SR leukemia,> 100 µM
same,TGI,LXFL 529 NSCLC,> 100 µM
NC(N)=NS(=O)(=O)c1ccc(NC(=O)c2cccn3c(=O)c4ccccc4nc23)cc1,TGI,CCRF-CEM leukemia,88 µM
same,TGI,HCC-2998 colon,> 100 µM
same,TGI,RXF 393 renal,> 100 µM
same,TGI,HOP-18 NSCLC,> 100 µM
same,TGI,MOLT-4 leukemia,85.9 µM
same,TGI,U251 CNS,> 100 µM
same,TGI,SF-539 CNS,> 100 µM
same,TGI,OVCAR-3 ovarian,> 100 µM
same,TGI,OVCAR-4 ovarian,> 100 µM
same,TGI,786-0 renal,> 100 µM
same,TGI,A549 NSCLC,> 100 µM
same,TGI,XF 498 CNS,76.8 µM
same,TGI,KM20L2 colon,63.7 µM
same,TGI,DLD-1 colon,> 100 µM
same,TGI,M14 melanoma,> 100 µM
same,TGI,LOX IMVI melanoma,> 100 µM
same,TGI,MALME-3M melanoma,> 100 µM
same,TGI,SNB-19 CNS,> 100 µM
same,TGI,M19-MEL melanoma,> 100 µM
same,TGI,NCI-H522 lung,> 100 µM
same,TGI,SNB-78 CNS,> 100 µM
same,TGI,SK-MEL-5 melanoma,> 100 µM
same,TGI,HCT-116 colon,> 100 µM
same,TGI,NCI-H23 lung,> 100 µM
same,TGI,A498 renal,> 100 µM
same,TGI,CAKI-1 renal,> 100 µM
same,TGI,RPMI-8226 leukemia,65.1 µM
same,TGI,TK-10 renal,> 100 µM
same,TGI,SF-295 CNS,> 100 µM
same,TGI,ACHN renal,> 100 µM
same,TGI,SN12C renal,> 100 µM
same,TGI,UACC-257 melanoma,58.7 µM
same,TGI,OVCAR-8 ovarian,> 100 µM
same,TGI,RXF-631 renal,> 100 µM
same,TGI,NCI-H460 lung,> 100 µM
same,TGI,HOP-92 NSCLC,> 100 µM
same,TGI,NCI-H226 lung,> 100 µM
same,TGI,K-562 leukemia,90.1 µM
same,TGI,SF-268 CNS,> 100 µM
same,TGI,IGROV1 ovarian,> 100 µM
same,TGI,UACC-62 melanoma,> 100 µM
same,TGI,COLO 205 colon,34 µM
same,TGI,SNB-75 CNS,> 100 µM
same,TGI,HL-60(TB) leukemia,44.9 µM
same,TGI,SK-MEL-28 melanoma,> 100 µM
same,TGI,DMS 273 small cell lung,> 100 µM
same,TGI,KM12 colon,36 µM
same,TGI,EKVX NSCLC,> 100 µM
same,TGI,UO-31 renal,> 100 µM
same,TGI,DMS 114 small cell lung,> 100 µM
same,TGI,HOP-62 NSCLC,> 100 µM
same,TGI,SW-620 colon,> 100 µM
same,TGI,HT29 colon,> 100 µM
same,TGI,SK-OV-3 ovarian,> 100 µM
same,TGI,SR leukemia,84.3 µM
same,TGI,LXFL 529 NSCLC,> 100 µM
COc1cccc(-c2cc(=O)c3cc(C)c(C)c(C(=O)O)c3o2)c1,TGI,CCRF-CEM leukemia,> 100 µM
same,TGI,HCC-2998 colon,> 100 µM
same,TGI,MOLT-4 leukemia,> 100 µM
same,TGI,U251 CNS,> 100 µM
same,TGI,SF-539 CNS,> 100 µM
same,TGI,OVCAR-3 ovarian,> 100 µM
same,TGI,OVCAR-4 ovarian,> 100 µM
same,TGI,786-0 renal,> 100 µM
same,TGI,A549 NSCLC,> 100 µM
same,TGI,XF 498 CNS,> 100 µM
same,TGI,KM20L2 colon,> 100 µM
same,TGI,DLD-1 colon,> 100 µM
same,TGI,M14 melanoma,> 100 µM
same,TGI,LOX IMVI melanoma,> 100 µM
same,TGI,MALME-3M melanoma,> 100 µM
same,TGI,SNB-19 CNS,> 100 µM
same,TGI,M19-MEL melanoma,> 100 µM
same,TGI,NCI-H522 lung,> 100 µM
same,TGI,SNB-78 CNS,> 100 µM
same,TGI,SK-MEL-5 melanoma,> 100 µM
same,TGI,HCT-116 colon,> 100 µM
same,TGI,NCI-H23 lung,> 100 µM
same,TGI,A498 renal,> 100 µM
same,TGI,RPMI-8226 leukemia,> 100 µM
same,TGI,TK-10 renal,> 100 µM
same,TGI,SF-295 CNS,> 100 µM
same,TGI,ACHN renal,> 100 µM
same,TGI,SN12C renal,> 100 µM
same,TGI,UACC-257 melanoma,> 100 µM
same,TGI,OVCAR-8 ovarian,> 100 µM
same,TGI,RXF-631 renal,> 100 µM
same,TGI,NCI-H460 lung,> 100 µM
same,TGI,HOP-92 NSCLC,> 100 µM
same,TGI,OVCAR-5 ovarian,> 100 µM
same,TGI,HCT-15 colon,> 100 µM
same,TGI,K-562 leukemia,> 100 µM
same,TGI,SF-268 CNS,> 100 µM
same,TGI,IGROV1 ovarian,> 100 µM
same,TGI,UACC-62 melanoma,> 100 µM
same,TGI,COLO 205 colon,> 100 µM
same,TGI,SNB-75 CNS,92.7 µM
same,TGI,HL-60(TB) leukemia,> 100 µM
same,TGI,SK-MEL-2 melanoma,> 100 µM
same,TGI,SK-MEL-28 melanoma,> 100 µM
same,TGI,DMS 273 small cell lung,> 100 µM
same,TGI,KM12 colon,> 100 µM
same,TGI,EKVX NSCLC,> 100 µM
same,TGI,UO-31 renal,> 100 µM
same,TGI,DMS 114 small cell lung,> 100 µM
same,TGI,HOP-62 NSCLC,> 100 µM
same,TGI,SW-620 colon,> 100 µM
same,TGI,HT29 colon,> 100 µM
same,TGI,SK-OV-3 ovarian,> 100 µM
same,TGI,LXFL 529 NSCLC,> 100 µM
